Where a name gives a salt, the structure may show the parent alone.
Key:
pERK in HCC827 cells = experiment: Cellular pERK Inhibition Assay (phospho-p44/42 MAPK sandwich ELISA); type: cell-based
Protocol: Cellular pERK Inhibition Assay
HCC827 cells (ATCC, Manassas, USA) were seeded into 96-well plates at a density of 1×10^5 cells/well in RPMI medium supplemented with 10% FBS and incubated 24 h. Compounds were diluted first in DMSO and then into serum-free medium, before being added to cells in triplicate to give a final concentration of 0.1% DMSO. Plates were incubated at 37° C. for 0.5 hours in a humidified atmosphere of 5% CO2 in air.
Following compound treatment, medium was removed and cells were lysed by adding 50 μL of lysis buffer (Cell Signalling Technology, Beverly, USA) to each well. Plates were then incubated at room temperature for 25 minutes with shaking. pERK levels were measured in lysates using the PathScan® phospho-p44/42 MAPK (Thr202/Tyr204) sandwich ELISA (Cell Signalling Technology, Beverly, USA) as per kit instructions. Briefly, 50 μL of cell lysate was added to 50 μL of ELISA sample diluent in a 96-well ELISA plate and incubated overnight at 4° C. Following washing, 100 μL of detection antibody was added per well and the plates incubated for 1 hour at 37° C. […] Plates were read at 450 nm on a SpectraMax Gemini reader (Molecular Devices, Uckfield, UK).
The average signal from blank wells (no cells added) was subtracted from the signals from each sample well. Levels of pERK were then expressed as “percent of control”, using DMSO treated samples as control. […]

SHP2 = SHP2 (Homo sapiens (Human), UniProt Q06124); experiment: SHP2 Biochemical Assay (DiFMUP conversion, pIRS1 activating peptide); conditions: DiFMUP substrate, 0.25 μM pIRS1 peptide, 30 min pre-incubation; average where more than one data point; read-out: SHP2 (IC50)
SHP2, sequence (Q06124 whole entry): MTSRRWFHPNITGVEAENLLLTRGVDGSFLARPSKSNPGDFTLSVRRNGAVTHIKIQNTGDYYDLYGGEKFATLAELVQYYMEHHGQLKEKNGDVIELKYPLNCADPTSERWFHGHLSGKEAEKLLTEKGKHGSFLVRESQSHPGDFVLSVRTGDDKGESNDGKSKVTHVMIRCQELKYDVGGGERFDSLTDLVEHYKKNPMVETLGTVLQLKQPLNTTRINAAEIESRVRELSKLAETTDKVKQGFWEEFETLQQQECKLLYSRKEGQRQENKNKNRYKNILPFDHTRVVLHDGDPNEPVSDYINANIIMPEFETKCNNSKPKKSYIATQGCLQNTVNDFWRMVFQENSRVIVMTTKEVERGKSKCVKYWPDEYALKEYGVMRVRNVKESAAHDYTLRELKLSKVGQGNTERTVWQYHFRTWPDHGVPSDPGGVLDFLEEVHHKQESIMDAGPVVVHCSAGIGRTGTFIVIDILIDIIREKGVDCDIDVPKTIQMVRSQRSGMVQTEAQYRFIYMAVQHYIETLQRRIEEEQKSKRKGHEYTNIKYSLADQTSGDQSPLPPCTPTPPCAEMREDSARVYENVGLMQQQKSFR

Compound | Cellular pERK assay (percent at stated concentration) (pERK in HCC827 cells; at 10 uM) [% at 10 uM] | IC50 (SHP2) [nM] | Cellular pERK assay (percent at stated concentration) (pERK in HCC827 cells; at 1 μM) [% at 1 μM]
COc1ccc2ccc(-c3c[nH]c4nc(N5[C@@H]6CC[C@H]5C[C@@H](N)C6)cnc34)c(Cl)c2n1 [Example 27, endo-8-[7-(8-chloro-2-methoxyquinolin-7-yl)-5H-pyrrolo[2,3-b]pyrazin-3-yl]-8-azabicyclo[3.2.1]octan-3-amine, hydrochloride salt] | 53 | 17 | –
COc1cc2c(Cl)c(-c3c[nH]c4nc(N5[C@@H]6CC[C@H]5C[C@@H](N)C6)cnc34)ccc2nc1C [Example 42, endo-8-[7-(5-chloro-3-methoxy-2-methylquinolin-6-yl)-5H-pyrrolo[2,3-b]pyrazin-3-yl]-8-azabicyclo[3.2.1]octan-3-amine] | – | 17 | 24
Cc1c(-c2n[nH]c3nc(N4[C@@H]5CC[C@H]4C[C@@H](N)C5)c(CO)nc23)ccc2nn(C)c(Cl)c12 [Example 142, {6-[endo-3-amino-8-azabicyclo[3.2.1]octan-8-yl]-3-(3-chloro-2,4-dimethyl-2H-indazol-5-yl)-1H-pyrazolo[3,4-b]pyrazin-5-yl}methanol] | – | 13 | –
COCc1nc2ccc(-c3n[nH]c4nc(N5[C@H]6CC[C@@H]5[C@@H](F)[C@@H](N)C6)c(CO)nc34)c(Cl)c2s1 [Example 143, {6-[(1R,2S,3S,5S)-3-amino-2-fluoro-8-azabicyclo[3.2.1]octan-8-yl]-3-[7-chloro-2-(methoxymethyl)-1,3-benzothiazol-6-yl]-1H-pyrazolo[3,4-b]pyrazin-5-yl}methanol] | – | 6.1 | –
CC(C)Oc1cnc2ccc(-c3n[nH]c4nc(N5[C@H]6CC[C@@H]5[C@@H](F)[C@@H](N)C6)c(CO)nc34)c(Cl)c2n1 [Example 144, {6-[(1R,2S,3S,5S)-3-amino-2-fluoro-8-azabicyclo[3.2.1]octan-8-yl]-3-[5-chloro-3-(propan-2-yloxy)quinoxalin-6-yl]-1H-pyrazolo[3,4-b]pyrazin-5-yl}methanol] | – | 28 | –
Cc1nc2c(-c3ccc4nn(C(C)C)c(C#N)c4c3Cl)n[nH]c2nc1N1[C@H]2CC[C@@H]1[C@@H](F)[C@@H](N)C2 [Example 145, 5-{6-[(1R,2S,3S,5S)-3-amino-2-fluoro-8-azabicyclo[3.2.1]octan-8-yl]-5-methyl-1H-pyrazolo[3,4-b]pyrazin-3-yl}-4-chloro-2-(propan-2-yl)-2H-indazole-3-carbonitrile, hydrochloride] | – | 36 | –
N[C@H]1C[C@@H]2CC[C@H]([C@H]1F)N2c1nc2[nH]nc(-c3ccc4ncc(N5CCOCC5)nc4c3Cl)c2nc1CO [Example 147, {6-[(1R,2S,3S,5S)-3-amino-2-fluoro-8-azabicyclo[3.2.1]octan-8-yl]-3-[5-chloro-3-(morpholin-4-yl)quinoxalin-6-yl] 1H-pyrazolo[3,4-b]pyrazin-5-yl}methanol] | – | 14 | –
Cc1nc2c(-c3ccc4ncc(N5CCOCC5)nc4c3Cl)n[nH]c2nc1N1[C@H]2CC[C@@H]1[C@@H](F)[C@@H](N)C2 [Example 148, (1R,2S,3S,5S)-8-{3-[5-chloro-3-(morpholin-4-yl)quinoxalin-6-yl] 5-methyl-1H-pyrazolo[3,4-b]pyrazin-6-yl}-2-fluoro-8-azabicyclo[3.2.1]octan-3-amine] | – | 25 | –
CC(C)n1nc2ccc(-c3n[nH]c4nc(N5[C@H]6CC[C@@H]5[C@@H](F)[C@@H](N)C6)c(CO)nc34)c(Cl)c2c1C#N [Example 149, 5-{6-[(1R,2S,3S,5S)-3-amino-2-fluoro-8-azabicyclo[3.2.1]octan-8-yl]-5-(hydroxymethyl)-1H-pyrazolo[3,4-b]pyrazin-3-yl}-4-chloro-2-(propan-2-yl)-2H-indazole-3-carbonitrile] | – | 14 | –
N[C@H]1C[C@@H]2CC[C@H]([C@H]1F)N2c1nc2[nH]nc(-c3ccc4ncc(N5CCC5)nc4c3Cl)c2nc1CO [Example 150, {6-[(1R,2S,3S,5S)-3-amino-2-fluoro-8-azabicyclo[3.2.1]octan-8-yl]-3-[3-(azetidin-1-yl)-5-chloroquinoxalin-6-yl]-1H-pyrazolo[3,4-b]pyrazin-5-yl}methanol] | – | 15 | –

From patent US11466016B2, “Pharmaceutical compounds” (priority 2018, dated 2022)
